Test results from patent US11607414B2, “Small molecule inhibitors of EGFR and PI3K” (The Regents of the University of Michigan, priority 2014, dated 2023).

Key:
[1] = system: phosphorylation of AKT in HCT-116 tumors; test: In vivo pharmacodynamics in subcutaneous HCT-116 tumors, pAKT; details: intraperitoneal 100 mg/kg
Text: (§1) However, additional synthesis of MOL-162 is needed to allow a full pharmacodynamic time course study to be carried out to determine the maximal degree of target inhibition of both targets after single and repeated daily dosing.

[2] = target: panel of 39 kinases (tyrosine, serine/threonine and lipid kinases); test: Broad panel of 39 kinases at 10 μM; format: biochemical
Text: Numerous hits were designed with nanomolar potency against EGFR and PIK3CA. […] A structure-activity relationship was shown for these agents against both of the biochemical targets.

[3] = system: phosphorylation of EGFR in HCT-116 tumors; test: In vivo pharmacodynamics in subcutaneous HCT-116 tumors, pEGFR; details: intraperitoneal 100 mg/kg
Text: as §1

EGFR = EGFR (Homo sapiens, UniProt P00533); test: Z'-LYTE biochemical kinase assay, EGFR; details: read-out: potency against EGFR
Sequence of EGFR (P00533 25-1210): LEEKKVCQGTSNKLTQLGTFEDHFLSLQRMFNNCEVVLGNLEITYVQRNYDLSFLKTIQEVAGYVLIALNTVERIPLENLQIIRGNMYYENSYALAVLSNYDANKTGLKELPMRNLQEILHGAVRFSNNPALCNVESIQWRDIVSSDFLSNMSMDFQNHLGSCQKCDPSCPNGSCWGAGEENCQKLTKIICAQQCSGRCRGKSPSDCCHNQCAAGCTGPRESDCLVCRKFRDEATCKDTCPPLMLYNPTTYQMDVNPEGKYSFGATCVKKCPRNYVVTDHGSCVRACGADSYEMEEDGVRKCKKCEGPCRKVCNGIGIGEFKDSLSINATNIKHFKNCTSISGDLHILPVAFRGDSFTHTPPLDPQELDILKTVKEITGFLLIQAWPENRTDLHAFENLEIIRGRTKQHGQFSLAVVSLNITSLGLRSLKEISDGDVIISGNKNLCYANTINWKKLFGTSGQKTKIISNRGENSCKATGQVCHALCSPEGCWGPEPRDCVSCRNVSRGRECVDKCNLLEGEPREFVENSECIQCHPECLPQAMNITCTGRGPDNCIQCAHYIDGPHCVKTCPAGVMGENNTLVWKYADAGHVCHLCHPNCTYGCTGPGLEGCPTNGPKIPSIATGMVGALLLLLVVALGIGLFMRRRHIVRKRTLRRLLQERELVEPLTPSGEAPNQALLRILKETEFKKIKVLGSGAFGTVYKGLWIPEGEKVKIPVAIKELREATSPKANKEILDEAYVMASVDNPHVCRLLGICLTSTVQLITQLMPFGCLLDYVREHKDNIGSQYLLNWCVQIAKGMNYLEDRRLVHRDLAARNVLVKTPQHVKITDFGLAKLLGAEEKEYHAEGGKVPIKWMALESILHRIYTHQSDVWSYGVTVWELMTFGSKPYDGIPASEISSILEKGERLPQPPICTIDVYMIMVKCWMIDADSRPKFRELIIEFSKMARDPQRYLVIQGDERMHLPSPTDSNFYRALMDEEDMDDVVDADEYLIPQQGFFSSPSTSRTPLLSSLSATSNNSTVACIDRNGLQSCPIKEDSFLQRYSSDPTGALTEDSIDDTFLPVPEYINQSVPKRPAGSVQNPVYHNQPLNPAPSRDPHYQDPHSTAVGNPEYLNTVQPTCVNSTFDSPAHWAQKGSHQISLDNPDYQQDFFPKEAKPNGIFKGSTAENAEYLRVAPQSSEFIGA
Procedure: Various compounds were tested for their ability to inhibit EGFR and PIK3CA. The assays determining inhibitions are given in Example 2 Assays-Z′-LYTE® and ADAPTA.
Assays: The Z′-LYTE® biochemical assay employs a fluorescence-based, coupled-enzyme format and is based on the differential sensitivity of phosphorylated and non-phosphorylated peptides to proteolytic cleavage (FIG. 6). The peptide substrate is labeled with two fluorophores—one at each end— that make up a FRET pair. In the primary reaction, the kinase transfers the gamma-phosphate of ATP to a single tyrosine, serine or threonine residue in a synthetic FRET-peptide. […] A ratiometric method, which calculates the ratio (the Emission Ratio) of donor emission to acceptor emission after excitation of the donor fluorophore at 400 nm, is used to quantitate reaction progress.
A significant benefit of this ratiometric method for quantitating reaction progress is the elimination of well-to-well variations in FRET-peptide concentration and signal intensities. […]
Both cleaved and uncleaved FRET-peptides contribute to the fluorescence signals and therefore to the Emission Ratio. The extent of phosphorylation of the FRET-peptide can be calculated from the Emission Ratio. […]
Bar-coded Corning, low volume NBS, black 384-well plate (Corning Cat. 4514) 1. […] Read on fluorescence plate reader and analyze the data.

NCI-60 cell panel = test: NCI-60 COMPARE panel, one-dose % growth; format: cell-based, human; details: 10 μM
Procedure: The method is outlined in Example 2—NCI COMPARE Panel.
The human tumor cell lines of the cancer screening panel are grown in RPMI 1640 medium containing 5% fetal bovine serum and 2 mM L-glutamine. For a typical screening experiment, cells are inoculated into 96 well microtiter plates in 100 μL at plating densities ranging from 5,000 to 40,000 cells/well depending on the doubling time of individual cell lines. After cell inoculation, the microtiter plates are incubated at 37° C., 5% CO2, 95% air and 100% relative humidity for 24 h prior to addition of experimental drugs. […]
Following drug addition, the plates are incubated for an additional 48 h at 37° C., 5% CO2, 95% air, and 100% relative humidity. […] Bound stain is subsequently solubilized with 10 mM trizma base, and the absorbance is read on an automated plate reader at a wavelength of 515 nm. […] Using the seven absorbance measurements [time zero, (Tz), control growth, (C), and test growth in the presence of drug at the five concentration levels (Ti)], the percentage growth is calculated at each of the drug concentrations levels. Percentage growth inhibition is calculated as: [(Ti−Tz)/(C−Tz)]×100 for concentrations for which Ti>/=Tz [(Ti−Tz)/Tz]×100 for concentrations for which Ti<Tz. […]

[4] = Tolerability in xenograft-bearing mice; format: in vivo; details: oral, daily for 10 days at 20 and 100 mg/kg
Text: (§2) FIGS. 8A, 8B, 8C, 8D, and 8E show in vivo efficacy of MOL-201 against, HCT-116, A431, COL-205, SK-MEL5 and MDA-MB-468 xenografts. […] The method is outlined in Example 2—Xenograft Studies.
(§3) Female 6-7 week old NCR nude mice (CrTac:NCr-Foxn1nu from Taconic), 6-7 weeks old, were implanted subcutaneously with 1×10^6 to 1×10^7 cells in a 1:1 serum-free media/Matrigel® mixture into the region of the right axilla. Mice were randomized into treatment groups and treatments initiated when tumors reached 100 to 200 mg. MTX-201 was administered daily for 10 days by oral gavage as a clear yellow solution in 5% DMSO/95% PEG300, based upon individual animal body weight (0.2 ml/20 g). Subcutaneous tumor volume and body weights were measured two to three times a week. Tumor volumes were calculated by measuring two perpendicular diameters with calipers and using the formula: tumor volume=(length×width2)/2. Mice were held following cessation of treatment until tumor burdens reached −1000 mg, to allow for calculation of tumor growth delay. Percent treated/control (% T/C) was calculated by dividing the median treated tumor weight by the median control tumor weight and multiplying by 100 on the last day of treatment. Tumor growth delay (T-C) was calculated by subtracting the median time to reach evaluation size (750 mg) of the treated group by the median time to evaluation size of the control group. […]

HCT-116 xenografts = test: Xenograft study, HCT-116; format: in vivo, NCR nude mice; details: higher dose (100 mg/kg), daily for 10 days, oral
Text: as §2, §3

A431 xenografts = test: Xenograft study, A431; format: in vivo, NCR nude mice; details: higher dose (100 mg/kg), daily for 10 days, oral
Text: as §2, §3

SK-MEL5 xenografts = test: Xenograft study, SK-MEL5; format: in vivo, NCR nude mice; details: higher dose (100 mg/kg), daily for 10 days, oral
Text: as §2, §3

[5] = system: HCT-116, A431, COL-205, SK-MEL5 and MDA-MB-468 xenografts; test: Xenograft studies, model not stated for the lower dose; format: in vivo, NCR nude mice; details: lower dose of 20 mg/kg
Text: as §2, §3

COL-205 xenografts = test: Xenograft study, COL-205; format: in vivo, NCR nude mice; details: higher dose (100 mg/kg), daily for 10 days, oral
Text: as §2, §3

Structure (SMILES) | inhibition of pAKT in tumors [1] | kinase profile (in words) [2] | inhibition of pEGFR in tumors [3] | IC50 (EGFR) [nM] | % growth in NCI-60 panel (in words) (NCI-60 cell panel) | tolerability [4] | anti-tumor activity (T/C and T-C) (HCT-116 xenografts) | anti-tumor activity (T/C and T-C) (A431 xenografts) | anti-tumor activity (T/C and T-C) (SK-MEL5 xenografts) | anti-tumor activity [5] | anti-tumor activity (T/C and T-C) (COL-205 xenografts)
COc1ccc(Nc2ncnc3ccc(-c4cncc(NS(C)(=O)=O)c4)cc23)cc1Cl [MOL-153, N-(5-(4-((3-chloro-4-methoxyphenyl)amino)quinazolin-6-yl)pyridin-3-yl)methanesulfonamide] | inhibition of pAKT | clean kinase profile | not detected | 349 |  |  |  |  |  |  | 
CS(=O)(=O)Nc1cc(-c2ccc3ncnc(Nc4cccc(Cl)c4)c3c2)cnc1Cl [MOL-201, N-(2-chloro-5-(4-((3-chlorophenyl)amino)quinazolin-6-yl)pyridin-3-yl)methanesulfonamide] |  |  |  |  | broad cell kill | well tolerated by mice with no clinical observations of toxicity | Anti-tumor activity observed | Anti-tumor activity observed | Anti-tumor activity observed | elicited anti-tumor activity | Anti-tumor activity observed
